One test concerns A. baumannii ATCC 19606. The test is described as follows: Antibacterial activity: MIC/MBC, MIC with PAβN, disc-diffusion. The class given is cell-based, Acinetobacter baumannii. As to conditions: A. baumannii ATCC 19606; for MIC: read-out: MIC. Summed up: (§1)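 Strains were subcultured twice on TSA at 30 °C. They were then tested by disc diffusion (EUCAST/CLSI), by CLSI broth-microdilution MIC in Mueller–Hinton II broth and by CLSI MBC, with compounds in DMSO.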

For a further test, the system named is E. cloacae DSM 6234. The test is described as above. The following applies: E. cloacae DSM 6234; for MIC: Enterobacter cloacae, DSM6234, read-out: MIC. The class given is cell-based, Enterobacter cloacae. In a few lines:
as §1

A further test deals with B. cepacia ATCC 25416. The test is described as follows: Antibacterial activity: MIC/MBC, disc-diffusion. The class given is cell-based, Burkholderia cepacia. As to conditions: Burkholderia cepacia, ATCC25416; B. cepacia ATCC 25416; read-out: MIC. In a few lines:
as §1

Test [1] deals with C. parapsilosis ATCC 22019. The test is described as follows: Antifungal activity: MIC/MFC, disc-diffusion. The class given is cell-based. The following applies: for MIC: Lodderomyces parapsilosis, ATCC22019, read-out: MIC. Summed up:
(§2)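 Compounds in DMSO were screened by disc diffusion and MIC determination (EUCAST, CLSI), with bactericidal and fungicidal concentrations obtained per CLSI. Fluconazole served as the antifungal reference and linezolid as the Gram-positive reference.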

For another test, the system named is C. tropicalis IBA 171. Briefly: Antifungal activity: MIC/MFC, disc-diffusion. The following applies: for MIC: Candida tropicalis, IBA171, read-out: MIC. The class given is cell-based. In a few lines:
as §2

In test [2] the test system is C. guilliermondii IBA 155. The test is described as follows: Antifungal activity: MIC/MFC, disc-diffusion. The format is cell-based. As to conditions: for MIC: read-out: MIC. In a few lines:
as §2

A further test deals with C. tropicalis ATCC 750. The test is described as follows: Antifungal activity: MIC/MFC, disc-diffusion. The class given is cell-based. The following applies: for MIC: Candida tropicalis, ATCC750, read-out: MIC. Summed up: as §2
For a further test, the system named is P. aeruginosa ATCC 27853. The test is described as follows: Antibacterial activity: MIC/MBC, MIC with PAβN, disc-diffusion. The format is cell-based. The following applies: Pseudomonas aeruginosa, ATCC27853; P. aeruginosa ATCC 27853; read-out: MIC. Summed up: as §1
Another test concerns S. aureus ATCC 6538P. Briefly: Antibacterial activity: MIC/MBC determination and disc-diffusion. The class given is cell-based, Staphylococcus aureus. The following applies: S. aureus ATCC 6538P; for diameter of inhibition zone: disc-diffusion, — = zone not observed; for MBC / MIC: Staphylococcus aureus, ATCC6538P; for MBC: read-out: MBC (first MBC where Eagle effect); for MIC: read-out: MIC. In a few lines: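 Strains held at −80 °C were subcultured twice (TSA for bacteria, Sabouraud dextrose agar for yeasts; 24–48 h, 30 °C). MICs were then measured and disc diffusion run following EUCAST and CLSI guidance. Cidal endpoints (MBC, MFC) were assessed per CLSI.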

Test [3] has as its system S. maltophilia ATCC 12714. The test is described as follows: Antibacterial activity: MIC/MBC, MIC with PAβN, disc-diffusion. The following applies: S. maltophilia ATCC 12714; for MIC: Stenotrophomonas maltophilia, ATCC12714, read-out: MIC. The format is cell-based, Stenotrophomonas maltophilia. Summed up: as §1
The mark [4] stands for this setting: (-) = zone not observed, paper discs 9 mm.
Where [5] appears, read: PAβN 20 μg mL^−1, MHB + 1 mM MgSO4.
Where [6] appears, read: Acinetobacter baumannii, ATCC19606.
Setting [7] is: Meyerozyma guilliermondii, IBA155.

Data on five molecules can be found in article PMC11110727, “Exploiting thiol-functionalized benzosiloxaboroles for achieving diverse substitution patterns – synthesis, characterization and biological evaluation of promising antibacterial agents” (RSC Medicinal Chemistry, 2024).

Converted amounts (≈) assume the structure as drawn. Where only a bound is given, the exact number is not on record here.

Take `C[Si]1(C)OB(O)c2cc(F)c(SC3CC(=O)NC3=O)c(F)c21` (centres unmarked) [Compound 12, 3-((5,7-Difluoro-3-hydroxy-1,1-dimethyl-1,3-dihydrobenzo[c][1,2,5]oxasilaborol-6-yl)thio)pyrrolidine-2,5-dione]: the “diameter of inhibition zone” value in the test with A. baumannii ATCC 19606 (setting [4]) stood at 18 mm; with S. aureus ATCC 6538P, 20 mm; in [3] (setting [4]), 13 mm. The “-fold reduction of MIC in the presence of PAβN” value is reported as 2 -fold in the test on A. baumannii ATCC 19606 (setting [5]), 8 -fold in the test with E. cloacae DSM 6234 (setting [5]) and 2 -fold in test [3] (setting [5]). Besides, the MBC with A. baumannii ATCC 19606 (setting [6]) was 200 µg/mL (≈ 583 µM); in the test on S. aureus ATCC 6538P, 100 µg/mL (≈ 291 µM). Also, the MIC in the test with A. baumannii ATCC 19606 (setting [6]) is 100 µg/mL (≈ 291 µM); in the test on E. cloacae DSM 6234, greater than 400 µg/mL; in the test on B. cepacia ATCC 25416, greater than 400 µg/mL; in test [1], greater than 400 µg/mL; in the test on C. tropicalis IBA 171, greater than 400 µg/mL; in test [2] (setting [7]), greater than 400 µg/mL. The MIC in the test with C. tropicalis ATCC 750 is greater than 400 µg/mL; with P. aeruginosa ATCC 27853 it was greater than 400 µg/mL; in the test with S. aureus ATCC 6538P, 6.25 µg/mL (≈ 18.2 µM); in test [3], 200 µg/mL (≈ 583 µM).
Take `CC(=O)CSc1ccc2c(c1F)[Si](C)(C)OB2O` [Compound 22, 1-((7-Fluoro-3-hydroxy-1,1-dimethyl-1,3-dihydrobenzo[c][1,2,5]oxasilaborol-6-yl)thio)propan-2-one]: the MIC (in the test on A. baumannii ATCC 19606 (setting [6]); with E. cloacae DSM 6234; with B. cepacia ATCC 25416; in test [1]; in the test on C. tropicalis IBA 171; in test [2] (setting [7])) was greater than 400 µg/mL in each case. Besides, the MIC is greater than 400 µg/mL in the test with C. tropicalis ATCC 750, greater than 400 µg/mL in the test on P. aeruginosa ATCC 27853, 1.56 µg/mL (≈ 5.49 µM) in the test with S. aureus ATCC 6538P and greater than 400 µg/mL in test [3]. For the same molecule, the “diameter of inhibition zone” value with S. aureus ATCC 6538P worked out at 25 mm. In the test on S. aureus ATCC 6538P, the MBC was 200 µg/mL (≈ 704 µM).
For the molecule `C[Si]1(C)OB(O)c2cc(F)c(S(=O)(=O)Nc3ccc(F)cc3)c(F)c21` [Compound 28, 5,7-Difluoro-N-(4-fluorophenyl)-3-hydroxy-1,1-dimethyl-1,3-dihydrobenzo[c][1,2,5]oxasilaborole-6-sulfonamide], the minimal inhibitory concentration (MIC) (with A. baumannii ATCC 19606 (setting [6]); in the test with E. cloacae DSM 6234; in the test with B. cepacia ATCC 25416; in test [1]; in the test with C. tropicalis IBA 171; in test [2] (setting [7])) was greater than 400 µg/mL throughout. For the same molecule, the MIC was greater than 400 µg/mL with C. tropicalis ATCC 750, greater than 400 µg/mL in the test on P. aeruginosa ATCC 27853, 50 µg/mL (≈ 129 µM) in the test on S. aureus ATCC 6538P and greater than 400 µg/mL in test [3]. Moreover, in the test on S. aureus ATCC 6538P, the “diameter of inhibition zone” value is given as 22 mm.
On to `C[Si]1(C)OB(O)c2cc(F)c(SC3CC(=O)N(c4ccc(Br)c(C(F)(F)F)c4)C3=O)c(F)c21` (centres unmarked) [Compound 16, 1-(4-Bromo-3-(trifluoromethyl)phenyl)-3-((5,7-difluoro-3-hydroxy-1,1-dimethyl-1,3-dihydrobenzo[c][1,2,5]oxasilaborol-6-yl)thio)pyrrolidine-2,5-dione], for which the MIC in the test with A. baumannii ATCC 19606 (setting [6]) was greater than 200 µg/mL; with E. cloacae DSM 6234 it was greater than 200 µg/mL; with B. cepacia ATCC 25416, greater than 200 µg/mL; in [1] it was 50 µg/mL (≈ 88.3 µM); in the test on C. tropicalis IBA 171, 50 µg/mL (≈ 88.3 µM); in test [2] (setting [7]), 12.5 µg/mL (≈ 22.1 µM). The MIC in the test with C. tropicalis ATCC 750 is 50 µg/mL (≈ 88.3 µM); in the test with P. aeruginosa ATCC 27853 it was greater than 200 µg/mL; in the test on S. aureus ATCC 6538P, 50 µg/mL (≈ 88.3 µM); in test [3], greater than 200 µg/mL. For the same molecule, the “diameter of inhibition zone” value is given as 24 mm in test [1] (C. parapsilosis ATCC 22019, (-) = zone not observed, paper discs 9 mm); 19 mm in the test with C. tropicalis IBA 171 (C. tropicalis IBA 171, (-) = zone not observed, paper discs 9 mm); 30 mm in test [2] (C. guilliermondii IBA 155, (-) = zone not observed, paper discs 9 mm); 19 mm in the test with C. tropicalis ATCC 750 (C. tropicalis ATCC 750, (-) = zone not observed, paper discs 9 mm); 20 mm with S. aureus ATCC 6538P. The molecule also yielded an MFC in [2] (Meyerozyma guilliermondii, IBA155, C. guilliermondii IBA 155) of 50 µg/mL (≈ 88.3 µM). Also, in the test with S. aureus ATCC 6538P, the MBC worked out at 100 µg/mL (≈ 177 µM).
For `C[Si]1(C)OB(O)c2cc(F)c(S(N)(=O)=O)c(F)c21` [Compound 27, 5,7-Difluoro-3-hydroxy-1,1-dimethyl-1,3-dihydrobenzo[c][1,2,5]oxasilaborole-6-sulfonamide], the MIC (in the test on A. baumannii ATCC 19606 (setting [6]); in the test on E. cloacae DSM 6234; with B. cepacia ATCC 25416; in [1]; in the test with C. tropicalis IBA 171; in test [2] (setting [7])) was greater than 400 µg/mL throughout. Also, the MIC is greater than 400 µg/mL in the test with C. tropicalis ATCC 750, greater than 400 µg/mL in the test on P. aeruginosa ATCC 27853, 400 µg/mL (≈ 1360 µM) with S. aureus ATCC 6538P and greater than 400 µg/mL in test [3].
